Laboratory results taken from US10766912B2 (priority 2017, dated 2020).

Legend:
[1] = test system: HCV GT1b wild-type replicon; experiment: Assay Example 1: activity against HCV GT1b wild-type replicon (luciferase, transient transfection); assay type: cell-based; conditions: Hepatitis C virus, 72 h, Huh 7 cells, 3 days
Method: Cells: Huh 7 cell line and HCV GT1b/3a and GT1b/6a NS5A chimeric replicons and GT1b and GT1a wild-type replicon RNA.
Treatment of Compound: According to the assay final concentrations of the compounds in Table 2, DMSO stock solutions of the compounds were diluted and then added to a 96-well assay plate. The final concentration of DMSO was 0.5%.
(§1) The preparation of cells: After replicon plasmid DNA was linearized with a corresponding restriction enzyme, the DNA was transcribed into RNA by using T7RNA polymerase. Replicon RNA prepared by transcription in vitro was transfected into Huh-7 cells by electroporation. Transfected cells were seeded at a density of 10,000 cells per well into the 96-well assay plate containing the diluted compounds, and then the plate was placed in a 37° C. incubator with 5% CO2 and cultured for 3 days.
(§2) Drug activity assay: Luminescence signal value (RLU) was detected with Envision within 15 minutes using the luciferase assay reagent Britelite plus, and the original data (RLU) was used for the calculation of the activity of the compounds.
The activity of the compounds was calculated by using the equation below: Inhibition %=(ZPE−CPD)/(ZPE−HPE)×100%*
(§3) The cell viability percentages (Viability %) and the inhibition percentages (Inhibition %) were imported into GraphPad Prism software, respectively, and curves were fitted by using nonlinear regression method to obtain the corresponding curves of the compounds, and the cytotoxicity (CC50) thereof and inhibitory activity (EC50) values against the HCV replicon thereof.

[2] = test system: HCV GT1b/5a NS5A chimeric replicon; experiment: Assay Example 2: activity against GT1b/5a NS5A chimeric replicon; assay type: cell-based; conditions: Hepatitis C virus, Huh-7, 72 h, read-out: EC50 Value GT1b/5a-NS5A-wt
Method: Cells: Huh-7 cells are liver cancer cell strains (from AppTec, USA), HCV GT1a and GT1b wild type (wt) replicons, GT1b/3a, GT1b/4a, GT1b/5a and GT1b/6a NS5A chimeric replicons.
Treatment of Compound: According to the assay final concentrations of the compounds in Table 5, DMSO stock solutions of the compounds were diluted and then added to a 96-well assay plate. The final concentration of DMSO was 0.5%.
as §1, with “T7 RNA” for “T7RNA”, “then” for “then the plate was”
as §2
The cytotoxicity of the compounds was calculated by using the equation below: Cell Viability %=(CPD−HPE)/(ZPE−HPE)×100%* The activity of the compounds was calculated by using the equation below: Inhibition %=(ZPE−CPD)/(ZPE−HPE)×100%*
as §3, with “thereof and the inhibitory activity” for “thereof and inhibitory activity”

[3] = Assay Example 4: distribution in rat plasma and liver tissue; assay type: in vivo; conditions: 10 mg/kg intragastric; for Kp at 0.5 h / Kp at 3 h / Kp at 8 h: male, oral, liver/plasma, read-out: Ratio (L/P)
Method: (§4) Eighteen male rats were randomly divided into two groups of 9 rats each, fasted (free access to water) overnight, and then intragastrically administered with 10 mg/kg of Compound 1a and Compound 6b, respectively. The subject animals were sacrificed by bloodletting at 0.5 h, 3 h and 8 h after administration. About 1 mL of blood was taken, and anticoagulated with EDTA-K2. The blood samples were immediately placed in ice, and then transferred within 30 min to centrifuge and separate plasma at 4° C. and 4,000 rpm for 10 min. Meanwhile, the whole liver was taken out at the various time points, rinsed with ice-cold physiological saline, blotted dry, weighed, and prepared into a homogenate with physiological saline (W/V=1:5). All plasma and liver homogenates were collected and then immediately stored at −20° C. for testing.
The rats can be fed at 4 h after administration.
(§5) After being completely melted, all the samples were vortexed to mix evenly. 50 μL of the samples were pipetted into a 1.5 mL centrifuge tube respectively and then 300 μL of IS-D (20 ng/ml diazepam acetonitrile) solution was added to each sample (200 μL of acetonitrile was added to the blank sample). The samples were vortexed for 10 min and then centrifuged at 12,000 rpm and 4° C. for 10 min. After 80 μL of pure water was added to a 96-well plate, 80 μL of the supernatants were pipetted respectively from the centrifuge tubes to the 96-well plate, vortexed for 3 min, and then kept at 4° C. until LC-MS/MS injection analysis.

[4] = Assay Example 5: distribution in mouse plasma and liver tissue; assay type: in vivo; conditions: 10 mg/kg intragastric; for Kp at 0.5 h / Kp at 3 h / Kp at 8 h: male, oral, liver/plasma, read-out: Ratio (L/P)
Method: as §4, with “mice” for “rats”, “groups,” for “groups of 9 rats each,”
The mice can be fed at 4 h after administration.
as §5, with “200” for “300”

SMILES | EC50 [1] [pM] | EC50 [2] [pM] | Liver concentration ([3]; 0.5 h) | Plasma concentration ([3]; 0.5 h) | Liver concentration ([3]; 3 h) | Plasma concentration ([3]; 3 h) | Liver concentration ([3]; 8 h) | Plasma concentration ([3]; 8 h) | Kp at 0.5 h ([3]; 0.5 h) | Kp at 3 h ([3]; 3 h) | Kp at 8 h ([3]; 8 h) | Liver concentration ([4]; 0.5 h) | Plasma concentration ([4]; 0.5 h) | Liver concentration ([4]; 3 h) | Plasma concentration ([4]; 3 h) | Liver concentration ([4]; 8 h) | Plasma concentration ([4]; 8 h) | Kp at 0.5 h ([4]; 0.5 h) | Kp at 3 h ([4]; 3 h) | Kp at 8 h ([4]; 8 h)
COC(=O)N[C@H](C(=O)N1CCC[C@H]1C(=O)Nc1ccc([C@H]2CC[C@H](c3ccc4nc([C@@H]5CCCN5C(=O)[C@@H](NC(=O)OC)[C@@H](C)OC)[nH]c4c3)N2c2cc(F)c(N3CC[Si](C)(C)CC3)c(F)c2)cc1)[C@@H](C)OC [Compound 6b] | 6.7 | 4.32 | 212 ± 57.2 | 19.8 ± 8.31 | 495 ± 171 | 34.8 ± 14.7 | 77.5 ± 20.6 | 5.82 ± 0.99 | 10.7 | 14.2 | 13.3 | 401 ± 116 | 226 ± 66 | 960 ± 530 | 464 ± 363.3 | 18 ± 1 | 10 ± 5.8 | 1.78 | 2.07 | 1.76
COC(=O)N[C@H](C(=O)N1CCC[C@H]1C(=O)Nc1ccc([C@@H]2CC[C@@H](c3ccc(NC(=O)[C@@H]4CCCN4C(=O)[C@@H](NC(=O)OC)[C@@H](C)OC)cc3)N2c2cc(F)c(N3CC[Si](C)(C)CC3)c(F)c2)cc1)[C@@H](C)OC [Compound 1a, Methyl ((2S,2′S,3R,3′R)-((2S,2′S)-(((((2S,5S)-1-(4-(4,4-dimethylazasilinan-1-yl)-3,5-difluorophenyl)pyrrolidin-2,5-diyl)bis(4,1-phenylene))bis(azanediyl))bis(carbonyl))bis(pyrrolidin-2,1-diyl))bis(3-methoxy-1-oxobutan-1,2-diyl))dicarbamate] | – | 1.62 | 384 ± 121 | 54.7 ± 7.82 | 1711 ± 485 | 70.1 ± 20.6 | 1087 ± 822 | 59 ± 33.7 | 7.01 | 24.4 | 18.4 | 337 ± 33.1 | 139 ± 16.9 | 2644 ± 147.3 | 384 ± 81 | 334 ± 73.9 | 59 ± 7.8 | 2.43 | 6.89 | 5.67
